Reference: patent publication US20230346824A1, “MEANS AND METHODS OF PREVENTING AND TREATING INFECTIONS” (SolyPlus GmbH, priority 2020, published 2023)

System: S protein monomer
Assay: MST binding to RED labelled S protein monomer in 50% negative human serum (FIGS. 4, 7, 8, 10, 12)
Set-up: species or system SARS-CoV-2
Details: 20 nM S protein monomer, ligand 0.5 µM - 0.2 nM arbitrary units, PBS 0.05% Tween 20, 50% negative human serum

SMILES	binding to S protein monomer detected by MST
O=C[C@H](O)[C@@H](O)[C@@H](O)[C@H](O)CO [D+Galactose, D-Galactose]	A binding could be detected
Cn1c(=O)c2c(ncn2C)n(C)c1=O [Coffein, caffeine]	A binding could be detected
O=C[C@H](O)[C@@H](O)[C@@H](O)CO [L+Arabinose, L-Arabinose]	No binding could be detected
